Data on one compound can be found in article PMC3486876 (PLoS Neglected Tropical Diseases, 2012).

Values joined by “and” are separate entries in the source; they are usually repeats but may differ in a detail not shown here. Identical values can stand only once. Like-named read-outs stand apart in the source and are kept apart here. Marks after values point to notes of the source that are not given here.

Data set [1] is described as follows: Drug concentration in plasma and brain (HPLC) in Mdr1ab(−/−) mice. The data set is classed as in vivo, mouse. As to conditions: 24 h post-treatment; for Brain concentration at LD50: determined graphically from Figure 3A; for Brain-to-plasma ratio (slope of brain vs plasma concentration): increasing doses.
A further data set has as its system wild-type mice. As to conditions: cited from earlier work.
A short description of data set [2]: Acute toxicity (14-day survival, LD50) after subcutaneous administration. To be noted: mouse, in vivo, sc, Mdr1ab(−/−) mice, survival over 14 days, determined graphically. As for the experimental part:
For acute toxicity experiments, Mdr1ab(−/−) mice (2–8 per dose rate) were injected subcutaneously with drug solutions at dose rates ranging from 0.1–1.75 mg/kg bw (0.11–2.0 µmol/kg bw) for IVM and 0.2–8.2 mg/kg bw (0.31–12.9 µmol/kg bw) for MOX. […] Mice were euthanized when severe tremors or ataxia were noted.

As for `CO/N=C1\C[C@]2(C[C@@H]3C[C@@H](C/C=C(\C)C[C@@H](C)/C=C/C=C4\CO[C@@H]5[C@H](O)C(C)=C[C@@H](C(=O)O3)[C@]45O)O2)O[C@H](/C(C)=C/C(C)C)[C@H]1C` [Moxidectin], the “Brain concentration at LD50” value is reported as 830 ^c pmol/g in data set [1] and 830 pmol/g in data set [1] (listed as MOX). For the same compound, the entries for the “Brain-to-plasma ratio (slope of brain vs plasma concentration)” value in data set [1] and in data set [1] (listed as MOX) were 2.6 (R^2 = 0.936) ^e ml/g and 2.6 mL/g, respectively. Moreover, the LD50 with wild-type mice is 70–131 ^b µmol/kg; with wild-type mice (oral administration, ref 20 (IVM), 21 (MOX)), 86 mg/kg. The LD50 at 14 days in data set [2] is 1.47 mg/kg and 2.3 µmol/kg.
